A short description of the data set: Solubility of chiral amide in IPA. Format: physicochemical. Particulars: organic solvent or mixture; in IPA (isopropyl alcohol); grams of chiral amide per liter of solvent; concentration up to 45° C. under vacuum. As to the method: After the hydrogenation was complete (Example 8), 64.9 g of solution was concentrated to 16.9 g up to 45° C. under vacuum. […] MTBE (348.2 g) was added, and the solution was washed with 250 mL of 10% NH4Cl solution. The organic solution was then washed an additional 3 times with water (248 mL for each wash). The residual organic solution was concentrated with MTBE (284.4 g) to azeotrope the water. The solution was concentrated to 53±5 g/kg. The final water concentration was 532 ppm. This solution was then seeded with chiral amide MTBE hemisolvate, 0.5 wt. %, and aged for 20 hours at 20-25° C. At this point, heptane was charge in three aliquots over specific periods of time. The first aliquot of heptane (54 mL), was charged in 9 hours. The second aliquot of heptane (90 mL) was charged in 6 hours. The third aliquot of heptane (294 mL) was charged in 3 hours. At the conclusion of the heptane charge, the solution was aged at 20-25° C. for 2 hours. The solution was filtered over a 5 micron fritted filter. A displacement wash was conducted using 164 mL of 5:1 n-heptane/MTBE, and the solids were dried at less than 45° C. under vacuum. The final water concentration was <0.5 wt. % (by KF). The final MTBE concentration was 11-12 wt. % (as a hemisolvate) and the final heptane concentration was <0.5 wt. % (both by GC). The chiral amide/MTBE hemisolvate was isolated in 90% yield, 99.3 LCAP.

Solubility data for 1 molecule are collected here from patent publication US7629470B2, “Formation of tetra-substituted enamides and stereoselective reduction thereof” (Merck & Co., Inc., priority 2004, dated 2009).

By solubility is commonly meant the dissolved amount per volume that the medium holds. `C[C@H](NC(=O)C(C)(C)Oc1ccc(C(F)(F)F)cn1)[C@@H](Cc1ccc(Cl)cc1)c1cccc(C(N)=O)c1` [chiral amide, 3-{(1S,2S)-1-(4-chlorobenzyl)-2-[(2-methyl-2-{[5-(trifluoromethyl)pyridine-2-yl]oxy}propanoyl)amino]-propyl}benzamide]: the solubility is greater than 1350 mg/mL.
